Here are results for six molecules from patent publication US20030124590A1, “Carbohydrate response element binding protein and uses thereof” (priority 2001, published 2003).

Some results are limits rather than exact numbers.

One data set concerns GFP-fused ChREBP. The experiment in a line: Subcellular localization of GFP-fused ChREBP in primary hepatocytes (confocal microscopy). The class given is cell-based, rat. Conditions: within 10 min after addition of db-cAMP into 27.5 mM glucose medium, preliminary, n=3. The procedure:
Determination of Subcellular Localization of ChREBP—Subcellular localization of GFP-fused WT-ChREBP or its mutants was determined using a confocal laser scanning microscope (Bio Rad, Hercules, Calif.). In order to quantitate nuclear localization of ChREBP, for each condition, 100 transfected hepatocytes from 5 independent experiments were scored in a blinded fashion as to whether the GFP-fused ChREBP was predominantly nuclear or cytoplasmic. The identity of the nucleus was verified by comparative phase-contrast microscopy. B. Results
Rat primary cultured hepatocytes were transfected with a plasmid comprising a gene encoding the GFP-fused wild type-ChREBP or NLS domain deletion mutants. […] The values are expressed as mean±SE. *P<0.05 compared to that of wild type-ChREBP.

A further data set concerns L-PK gene. In words: L-PK promoter luciferase reporter in ChREBP-transfected primary hepatocytes with kinase/phosphatase inhibitors or db-cAMP. The note with it: treatment with db-cAMP, low and high glucose. The procedure:
Primary hepatocytes were prepared from male Sprague-Dawley rats using the collagenase (Life Technologies, Inc.) perfusion method (Berry and Friend (1969) J Cell Bio […], 506-520) and plated in collagen-coated six-well tissue culture plates (Primaria Falcon, Franklin Lakes, N.J.) at a density of 1×10^6 cells/well in glucose-free Dulbecco's modified Eagle's medium (Life Technologies, Inc.) supplemented with 100 nM dexamethasone, 10 nM insulin, 100 units/ml penicillin, 100 μg/ml streptomycin and 10% dialyzed fetal bovine serum (Life Technologies, Inc.). Following attachment, synthetic liposomes were used to transfect hepatocytes with 0.5 μg of the luciferase reporter plasmid and 0.1 μg of the internal control plasmid pRL-TK. After 14 h the media was replaced by Dulbecco's modified Eagle medium supplemented with 100 nM dexamethasone, 10 nM insulin, 10% Fetal Bovine Serum and either 10 mM lactate, 5.5 mM glucose or 27.5 mM glucose. The cells were incubated for an additional 12 h prior to determination of luciferase activity using the Dual-Luciferase Reporter Assay System (Promega).
Protein Kinase and Protein Phosphatase Inhibitors—Prior to exchange to 5.5 or 27.5 mM glucose medium, transfected primary culture hepatocytes were treated for 1 h with 10 μM H-89, 500 nM cantharidic acid (Calbiochem), 5 μM KN-62 (Calbiochem), 30 μM PD98059 (Calbiochem), 50 μM Genistein, or dimethylsulfoxide vehicle.
Rat primary cultured hepatocytes were transfected a plasmid comprising a gene encoding the wild type (WT)-ChREBP. H-89, cantharidic acid, or dimethylsulfoxide vehicle was added, and the cells were incubated in 5.5 mM (□) or 27.5 mM (▪) glucose for 12 h.
Rat primary cultured hepatocytes were transfected with wild type (WT)-ChREBP, S626A, S626D, T666A, or T666D. After transfection, the cells were incubated in 5.5 mM (□) or 27.5 mM (▪) glucose for 12 h. […] Rat primary cultured hepatocytes were transfected with wild type (WT)-ChREBP, S196A+S626A, or S196A+T666A. After transfection, cells were incubated under 5.5 mM (□) or 27.5 mM (▪) glucose, and cAMP was added both low and high glucose.
Background: A reporter such as luciferase makes a cellular process visible.

Data set [1] concerns ChREBP. The experiment in a line: Intraperitoneal db-cAMP in rats, gel shift of liver nuclear extracts. Conditions: rats fed high carbohydrate diet, db-cAMP 1 mmol/kg intraperitoneally. The class given is in vivo, rat. The procedure: Treatment of Rats with Dibutyryl (db)-cAMP and Nuclear Extract Preparation—Male Sprague-Dawley rats weighting 250 g were used in all experiments. After 48 h starvation, the rats were fed a high carbohydrate diet and db-cAMP (1 mmol/kg) was injected intraperitoneally. The rats were sacrificed 10 min and 30 min after injection and nuclear extracts were prepared immediately from rat liver as described in Example 1. Gel shifts were performed as described in Example 2.

Another data set relates to AMPK. The experiment in a line: AMPK activity in hepatocytes (SAMS peptide). Conditions: fatty acid added to high glucose medium. The class given is cell-based, rat. The procedure:
The extract was centrifuged at 15,800·g for 15 min, and the resulting supernatant solution was transferred to a fresh tube, adjusted to 10% with polyethylene glycol 8000 ([…], France), and incubated on ice for 20 min. Following centrifugation at 15,800·g for 15 min, the pellet was suspended in 100 μl buffer A. […] A. (2000) Proc. Natl. Acad. Sci. USA. 97, 4023-4028).

A further data set concerns cultured hepatocytes. In words: AMP, ADP, ATP assays in cultured hepatocytes. It is filed as cell-based, rat. Conditions: hepatocytes 12 h with 150 µM fatty acid, mean±S.E., n=4. The procedure: Hepatocytes were scraped and collected directly into 0.5 ml of ice-cold 6% (v/v) HClO4. The concentrations of ADP and ATP were determined enzymatically in the acid-extract with methods described (Kawaguchi, T., Veech, R. L., and Uyeda, K. (2001) J. Biol. Chem. 276, 28554-28561), and the cytosolic AMP was calculated by the method of Veech et al. (Veech, R. L., Lawson, J. W., Cornell, N. W., and Krebs, H. A. (1979) J. Biol. Chem. 254, 6538-6547).
Values are expressed as mean±S.E. (n=4).

Data set [2] relates to C-terminus ChREBP (bHLH/ZIP domain, Thr666). The experiment in a line: Phosphorylation/dephosphorylation and DNA binding of recombinant C-terminus ChREBP. It is filed as biochemical, mouse. Conditions: catalytic subunit of PP2A 200 units, 30° C. The text has this:
Recombinant Protein Production—Recombinant protein of mouse ChREBP was expressed in Escherichia coli by inserting the C-terminus of the ChREBP construct, encoding the amino acids 651-864 of ChREBP+His6 tag, into the BamHI and HindIII sites of the T7-based expression vector pMal-c2 (New England Bio Lab, Beverly, Mass.) to produce an N-terminal fusion with maltose-binding protein. Expressed protein was purified according to manufacturer's instruction.
Phosphorylation and Dephosphorylation of ChREBP—The reaction mixture contained, in a final volume of 0.2 ml, 50 mM Tris/Cl pH 7.5, 0.2 μM [γ-^32P]ATP (3000 Ci/mmol), 5 mM MgCl2, 0.2 mM EDTA, 2 mM dithiothreitol, and 5 mM potassium phosphate. […] At given time intervals, aliquots were removed and DNA-binding activity was determined by gel shift assay as described in Example 2. [^32P]phosphate-bound ChREBP was also determined as previously described (Kitajima and Uyeda (1983) J. Biol Chem 258, 7352-7357).
FIG. 13A is a graph showing that phosphate incorporation mediated by PKA correlates directly with DNA binding. […] At given time intervals, [^32P]phosphate incorporation (□) and DNA-binding activity (▪) were determined. Values are expressed as mean±SE. […] At given time intervals, remaining phosphorylated C-terminus ChREBP (□) and DNA-binding activity (▪) were determined. Values are expressed as mean±SE.

Data set [3] relates to ChREBP. The experiment in a line: Gel shift of purified ChREBP after incubation with PKA/PP2A in vitro. The class given is biochemical, rat. The note with it: catalytic subunit of PP2A 0.025 U/μl added. The procedure:
Gel shift assay. Gel mobility shift assays were performed as described by Liu et al. (Liu et al. (1993) J Biol Chem 268, 12787-12795). Double-stranded oligonucleotides (Table 1) were prepared by mixing equal amounts of the complementary single-stranded DNAs in 50 mM NaCl, heating to 70° C. for 15 min, and cooling to room temperature. The annealed oligonucleotides were labeled with ^32P in the presence of [γ^32P]-ATP (Amersham Pharmacia) and T4 polynucleotide kinase (New England Biolabs). Binding reactions were carried out in reaction mixture containing 20 mM Hepes (pH 7.9), 50 mM KCl, 5 mM DTT, 0.2 mM EDTA, 0.5 mM PMSF, 10% glycerol, 1 μg/μl of poly(dI-dC) (Amersham Pharmacia) and 1 μg/μl of nuclear extract. The reaction mixture was incubated at room temperature for 30 min and DNA-protein complexes were separated by electrophoresis in a 4.5% nondenaturing polyacrylamide gel.
Purified ChREBP was incubated with PKA and/or PP2A in vitro and measured by gel-shift analysis with the [^32P]-radiolabeled WT oligonucleotide. Purified ChREBP was incubated for 20 min with ATP (1 mM), PKA (0.1 U/μl), 0.2 U/μl PKI, 0.025 U/μl PP2A and the PP2A inhibitor, okadaic acid (10 nM).

In data set [4] the target is T1, ChREBP (Carbohydrate Response Element Binding Protein) from rat liver (UniProt Q8VIP2).
T1 sequence: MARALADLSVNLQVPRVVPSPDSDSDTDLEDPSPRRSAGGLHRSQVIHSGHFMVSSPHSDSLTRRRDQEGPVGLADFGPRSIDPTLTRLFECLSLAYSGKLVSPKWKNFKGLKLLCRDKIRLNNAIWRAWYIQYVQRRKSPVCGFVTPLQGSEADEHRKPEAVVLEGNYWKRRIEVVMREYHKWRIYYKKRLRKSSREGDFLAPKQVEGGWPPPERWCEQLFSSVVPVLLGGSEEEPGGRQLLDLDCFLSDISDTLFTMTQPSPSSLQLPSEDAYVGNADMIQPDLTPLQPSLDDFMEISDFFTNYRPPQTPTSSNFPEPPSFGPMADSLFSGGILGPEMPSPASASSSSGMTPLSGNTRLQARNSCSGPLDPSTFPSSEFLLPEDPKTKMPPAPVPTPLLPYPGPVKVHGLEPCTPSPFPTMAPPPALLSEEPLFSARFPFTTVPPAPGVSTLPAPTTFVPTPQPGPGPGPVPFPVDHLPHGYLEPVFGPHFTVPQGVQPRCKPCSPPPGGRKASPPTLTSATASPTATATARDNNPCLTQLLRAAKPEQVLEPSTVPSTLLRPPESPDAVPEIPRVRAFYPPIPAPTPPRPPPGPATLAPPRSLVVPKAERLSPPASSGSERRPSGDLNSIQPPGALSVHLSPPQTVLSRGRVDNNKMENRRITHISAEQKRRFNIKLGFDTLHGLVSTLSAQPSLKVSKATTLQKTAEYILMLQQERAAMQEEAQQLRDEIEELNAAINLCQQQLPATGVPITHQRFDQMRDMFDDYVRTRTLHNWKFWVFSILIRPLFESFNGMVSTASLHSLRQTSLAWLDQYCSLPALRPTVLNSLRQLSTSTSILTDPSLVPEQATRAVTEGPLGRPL

For data set [5], the target named is T2, ChREBP, purified from rat liver (Rattus norvegicus, UniProt Q8VIP2 Q8VIP2:1-865).
T2 sequence: T1 sequence
In words: pulldown; DNA-affinity column; eluted at 0.8 M KCl.

In data set [6] the target is T2, ChREBP, purified from rat liver. In words: EMSA; purified ChREBP. Conditions: label: 32P. For orientation: In EMSA bound probe runs differently from free probe, usually more slowly.
Procedure: Purified ChREBP was incubated with PKA and/or PP2A in vitro and measured by gel-shift analysis with the [³²P]-radiolabeled WT oligonucleotide. Purified ChREBP was incubated for 20 min with ATP (1 mM), PKA (0.1 U/μl), 0.2 U/μl PKI, 0.025 U/μl PP2A and the PP2A inhibitor, okadaic acid (10 nM).

On to `CCCC(=O)Nc1ncnc2c1ncn2[C@@H]1O[C@@H]2COP(=O)(O)O[C@H]2[C@H]1OC(=O)CCC` [db-cAMP, Dibutyryl (db)-cAMP], for which the “export of GFP-ChREBP from nuclei to cytoplasm” value in the data set with GFP-fused ChREBP is “not exported”. Besides, the “transcriptional activity of S196A+T666A ChREBP double mutant” value in the data set with L-PK gene is listed as “not inhibited”. Moreover, in the data set on ChREBP [1], the “time after injection to inactivation of ChREBP DNA-binding activity in liver nuclear extracts” value is listed as ≤ 10 min.
On to `CCCCCCCC(=O)O` [octanoate], for which the “increase of AMPK activity compared to absence of fatty acid” value in the data set on AMPK is listed as “about two-fold”. In the data set with cultured hepatocytes, the AMP is given as 942 ± 106 nmol/g cells and the AMP/ATP ratio worked out at 0.30 ± 0.03.
On to “PP2A: catalytic subunit of protein phosphatase 2A”, for which the “DNA-binding activity of 32P-phosphorylated bHLH/ZIP domain on incubation with PP2A” value in [2] is on record as “complete recovering of the activity”. In the data set with ChREBP [3], the “DNA-binding activity of inactivated ChREBP” value is given as “restored”.
As for “catalytic subunit of cAMP-dependent protein kinase (PKA)”, the “radiolabeling of ChREBP with γ-[32P]-ATP (SDS-PAGE)” value in data set [4] is recorded as “leads to radiolabeling of ChREBP”.

B1: DNA-affinity column ChRE (dsDNA)
DNA 1: CATGGGCGCACGGGGCACTCCCGTGGTTCC
DNA 2: GGAACCACGGGAGTGCCCCGTGCGCCCATG
With B1, the binding result in [5] is reported as “binds”.

B2: LPK ChRE WT (dsDNA)
DNA 1: GGGCGCACGGGGCACTCCCGTGGTTCC
DNA 2: GGAACCACGGGAGTGCCCCGTGCGCCC
Consider B2, for which the binding result in data set [6] is “binds”.
